Tested on: Chlorella cells
Experiment: Test of reproductive ability using chlorella cells
Type: cell-based
Settings: relative number of chlorella cells after 14 days, non-treated area = 100
Description: Chlorella cells which were green cells of a […] were cultured with vibration in an inorganic salt medium. […] The concentration of the cells was set to 1.00×10^5 (cells per ml) at the start of the test. […] As the inorganic salt medium, a Linsmaier-Skoog (LS) medium was used. Three media were used as the treated areas and the non-treated areas every the plant-activating agent or the plant-activating composition. The average thereof was compared with that in the non-treated areas.

[1] = Table 1, LS medium, concentration (ppm) as in table

| Molecule | reproductive ability (Table B1) | reproductive ability [1] | reproductive ability (Table A1) |
| --- | --- | --- | --- |
| CCCCCCCCCCCCCCCCCCOCC(O)CO (stereo not drawn) [Inventive product B1-4, Batyl alcohol] | 130 |  |  |
| Citric acid C12 monoamide [Inventive product 1-8] |  | 128 |  |
| CCC(=O)O [Comparative product A1-3, Propionic acid, reference compound] |  |  | 94 |
| CC(O)C(=O)O (stereo not drawn) [Comparative product 1-1, Lactic acid, reference compound] |  | 99 |  |
| O=C1OCC(CO)O1 (stereo not drawn) [Inventive product B1-9, Glycerol carbonate] | 126 |  |  |
| Citric acid C14 monoamide [Inventive product 1-6] |  | 136 |  |
| CCCCCCCCCCCCCCCCCCCCCCCCCCCCCC(=O)O [Inventive product A1-7, Melissic acid] |  |  | 138 |
| Citric acid C18 monoester [Inventive product 1-1] |  | 142 |  |
| CCCCCCCCCCCCCCCCNC(=O)C(O)CO (stereo not drawn) [Inventive product B1-7, Glyceric acid cetyl amide] | 120 |  |  |
| Stearic acid monoglyceride [Inventive product B1-3] | 132 |  |  |
| CCCCCCCC/C=C\CCCCCCCC(=O)O [Inventive product A1-5, Oleic acid] |  |  | 148 |
| OCC(O)CO [Comparative product B1-1, Glycerol, reference compound] | 98 |  |  |
| CCCCCCCCCCCCCC(=O)O [Inventive product A1-1, Myristic acid (LUNAC MY-98)] |  |  | 127 |
| Citric acid C18 diester [Inventive product 1-7] |  | 138 |  |
| CCCCCCCCCCCCCCCCCCCCCC(=O)O [Inventive product A1-6, Behenic acid (LUNAC BA)] |  |  | 150 |
| Citric acid C18 monoamide [Inventive product 1-5] |  | 139 |  |
| Hexaglycerol ester of stearic acid [Inventive product B1-8] | 123 |  |  |
| CC(O)C(=O)O (stereo not drawn) [Comparative product A1-4, Lactic acid, reference compound] |  |  | 93 |
| Citric acid C18 monoester potassium salt [Inventive product 1-3] |  | 138 |  |
| CCCCCCCCCCCCCCCCCCOC(=O)C(O)CO (stereo not drawn) [Inventive product B1-6, Glyceric acid stearyl ester] | 122 |  |  |
| CC(=O)O [Comparative product A1-1, Acetic acid, reference compound] |  |  | 90 |

Source: US7829500B2, “Plant-activating agent” (Kao Corporation, priority 2000, dated 2010)
